Results reported in patent publication US12162858B2, “Quinoline derivatives as inhibitors of AXL/MER RTK and CSF1R” (QURIENT CO., LTD., priority 2018, dated 2024).
Read-outs that look alike come from different tables or passages of the source.

Tests used:
CSF1R [1] = target: T1, CSF1R (Homo sapiens, UniProt P07333); assay: Cellular CSF1R inhibition ELISA (p-CSF1R, M-CSF-induced) using THP-1 cells; type: cell-based; design: THP-1 cells act as a model for human monocytes; endogenous in cells; host or cells: THP-1
Outline: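 THP-1 cells (2×10^5/well, RPMI/10% FBS) were treated with compound, 10 doses in 3-fold steps, for 24 h at 37 °C in 0.2% DMSO final. They were then stimulated 5 min with human M-CSF (10 ng/ml final) and lysed. p-CSF1R was read by sandwich ELISA (HRP/TMB), with a sigmoidal dose-response fit.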

CSF1R [2] = target: T1, CSF1R; assay: KINOMEscan competition binding assay for CSF1R; design: DNA tag for qPCR (not a peptide); host or cells: E. coli/T7 phage or HEK-293
Outline: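 Values are either % inhibition at 0.1 uM, relative to DMSO (100% Ctrl) and a control compound (0% Ctrl), or Kd from an 11-point 3-fold series fitted with Hill slope −1. DNA-tagged kinase binds immobilized ligand beads with compound for 1 h at room temperature, and eluted kinase is measured by qPCR.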

[3] = read-out: CSF1R kinase binding activity, Percent (%) inhibition
[4] = read-out: CSF1R kinase binding activity, Range

T1 sequence (P07333 20-972): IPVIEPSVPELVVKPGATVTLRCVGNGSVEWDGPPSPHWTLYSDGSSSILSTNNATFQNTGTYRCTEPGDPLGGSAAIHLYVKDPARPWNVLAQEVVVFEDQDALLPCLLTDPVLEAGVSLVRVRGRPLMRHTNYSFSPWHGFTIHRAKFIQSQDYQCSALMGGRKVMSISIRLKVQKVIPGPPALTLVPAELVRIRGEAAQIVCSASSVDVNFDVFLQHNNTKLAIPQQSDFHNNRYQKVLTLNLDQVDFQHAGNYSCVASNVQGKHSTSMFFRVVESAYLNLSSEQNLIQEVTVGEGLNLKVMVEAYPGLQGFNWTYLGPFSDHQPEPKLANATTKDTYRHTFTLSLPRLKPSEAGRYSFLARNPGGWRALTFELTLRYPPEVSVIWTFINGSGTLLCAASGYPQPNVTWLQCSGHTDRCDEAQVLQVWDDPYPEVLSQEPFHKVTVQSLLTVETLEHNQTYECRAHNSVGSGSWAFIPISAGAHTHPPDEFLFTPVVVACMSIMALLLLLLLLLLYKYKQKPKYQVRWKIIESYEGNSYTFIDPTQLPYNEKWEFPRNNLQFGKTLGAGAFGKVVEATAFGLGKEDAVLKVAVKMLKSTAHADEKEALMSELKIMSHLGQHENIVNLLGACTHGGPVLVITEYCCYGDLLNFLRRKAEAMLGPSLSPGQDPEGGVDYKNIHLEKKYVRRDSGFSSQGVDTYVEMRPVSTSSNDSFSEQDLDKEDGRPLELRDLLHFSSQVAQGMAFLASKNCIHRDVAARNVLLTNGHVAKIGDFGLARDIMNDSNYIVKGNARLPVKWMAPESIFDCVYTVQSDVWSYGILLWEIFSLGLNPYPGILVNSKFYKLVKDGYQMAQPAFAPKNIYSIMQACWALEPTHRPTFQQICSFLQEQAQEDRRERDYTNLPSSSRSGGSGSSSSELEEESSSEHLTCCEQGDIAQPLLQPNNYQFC

## COc1cc2nccc(Oc3ccc(NC(=O)c4nn(CC5COC5)cc4OCC(F)(F)F)c(F)c3)c2cc1OC [Compound 95]
CSF1R [1]
  IC50: ≥ 1000 nM
CSF1R [2]; [3]
  inhibition at 0.1 µM: 61%
CSF1R [2]; [4]
  inhibition at 0.1 µM: 50 to 80%

## COc1cc2nccc(Oc3ccc(NC(=O)c4nn(C5CCOC5)cc4OCC(F)(F)F)cc3C)c2cc1OC (stereo not shown) [Compound 85]
CSF1R [1]
  IC50: 500 to 1000 nM
CSF1R [2]; [3]
  inhibition at 0.1 µM: 78%
CSF1R [2]; [4]
  inhibition at 0.1 µM: 50 to 80%

## COc1cc2nccc(Oc3ccc(NC(=O)c4nn(C5CCN(C)C5)cc4OCC(F)(F)F)c(F)c3)c2cc1OC (stereo not shown) [Compound 94]
CSF1R [1]
  IC50: ≥ 1000 nM
CSF1R [2]; [3]
  inhibition at 0.1 µM: 65%
CSF1R [2]; [4]
  inhibition at 0.1 µM: 50 to 80%

## COc1cc2nccc(Oc3ccc(NC(=O)c4nn(CCC5CCCC5)cc4OCC(F)(F)F)nc3)c2cc1OC [Compound 93]
CSF1R [1]
  IC50: < 500 nM
CSF1R [2]; [3]
  inhibition at 0.1 µM: 89%
CSF1R [2]; [4]
  inhibition at 0.1 µM: ≥ 80%

## COc1cc2nccc(Oc3ccc(NC(=O)c4nn(CC(C)O)cc4OCC(F)(F)F)cc3C)c2cc1OC (stereo not shown) [Compound 83]
CSF1R [1]
  IC50: < 500 nM
CSF1R [2]; [3]
  inhibition at 0.1 µM: 97%
CSF1R [2]; [4]
  inhibition at 0.1 µM: ≥ 80%

## COc1cc2nccc(Oc3ccc(NC(=O)c4nn(CCN)cc4OCC(F)(F)F)cc3F)c2cc1OC [Compound 79]
CSF1R [1]
  IC50: ≥ 1000 nM
CSF1R [2]; [3]
  inhibition at 0.1 µM: 12%
CSF1R [2]; [4]
  inhibition at 0.1 µM: < 50%

## COc1cc2nccc(Oc3ccc(NC(=O)c4nn(CCN)cc4OCC(F)(F)F)cc3)c2cc1OC [Compound 88]
CSF1R [1]
  IC50: ≥ 1000 nM
CSF1R [2]; [3]
  inhibition at 0.1 µM: 21%
CSF1R [2]; [4]
  inhibition at 0.1 µM: < 50%

## COc1cc2nccc(Oc3ccc(NC(=O)c4nn(C5CC5)cc4OCC(F)(F)F)nc3)c2cc1OC [Compound 5]
CSF1R [1]
  IC50: < 500 nM
CSF1R [2]; [3]
  inhibition at 0.1 µM: 97%
CSF1R [2]; [4]
  inhibition at 0.1 µM: ≥ 80%
CSF1R [2]; read-out: CSF1R kinase binding activity (Kd)
  Kd: < 100 nM

## COc1cc2nccc(Oc3ccc(NC(=O)c4nn(C5CCNC5)cc4OCC(F)(F)F)cc3C)c2cc1OC (stereo not shown) [Compound 81]
CSF1R [1]
  IC50: ≥ 1000 nM
CSF1R [2]; [3]
  inhibition at 0.1 µM: 46%
CSF1R [2]; [4]
  inhibition at 0.1 µM: < 50%

## COCCn1cc(OCC(F)(F)F)c(C(=O)Nc2ccc(Oc3ccnc4cc(OC)c(OC)cc34)c(C)c2)n1 [Compound 84]
CSF1R [1]
  IC50: 500 to 1000 nM
CSF1R [2]; [3]
  inhibition at 0.1 µM: 97%
CSF1R [2]; [4]
  inhibition at 0.1 µM: ≥ 80%

## COc1cc2nccc(Oc3ccc(NC(=O)c4nn(CC(C)C)cc4OCC(F)(F)F)cc3)c2cc1OC [Compound 87]
CSF1R [1]
  IC50: 500 to 1000 nM
CSF1R [2]; [3]
  inhibition at 0.1 µM: 71%
CSF1R [2]; [4]
  inhibition at 0.1 µM: 50 to 80%

## COc1cc2nccc(Oc3ccc(NC(=O)c4nn(C5CCNC5)cc4OCC(F)(F)F)cc3F)c2cc1OC (stereo not shown) [Compound 78]
CSF1R [1]
  IC50: ≥ 1000 nM
CSF1R [2]; [3]
  inhibition at 0.1 µM: 11%
CSF1R [2]; [4]
  inhibition at 0.1 µM: < 50%

## COc1cc2nccc(Oc3ccc(NC(=O)c4nn(CCN)cc4OCC(F)(F)F)cc3C)c2cc1OC [Compound 82]
CSF1R [1]
  IC50: ≥ 1000 nM
CSF1R [2]; [3]
  inhibition at 0.1 µM: 35%
CSF1R [2]; [4]
  inhibition at 0.1 µM: < 50%

## COc1cc2nccc(Oc3ccc(NC(=O)c4nn(C5CCNC5)cc4OCC(F)(F)F)cc3)c2cc1OC (stereo not shown) [Compound 86]
CSF1R [1]
  IC50: ≥ 1000 nM
CSF1R [2]; [3]
  inhibition at 0.1 µM: 11%
CSF1R [2]; [4]
  inhibition at 0.1 µM: < 50%

## COc1cc2nccc(Oc3ccc(NC(=O)c4nn(C5CCOCC5)cc4OCC(F)(F)F)nc3)c2cc1OC [Compound 90]
CSF1R [1]
  IC50: < 500 nM
CSF1R [2]; [3]
  inhibition at 0.1 µM: 95%
CSF1R [2]; [4]
  inhibition at 0.1 µM: ≥ 80%

## COc1cc2nccc(Oc3ccc(NC(=O)c4nn(C5CCOC5)cc4OCC(F)(F)F)c(F)c3)c2cc1OC (stereo not shown) [Compound 77]
CSF1R [1]
  IC50: ≥ 1000 nM
CSF1R [2]; [3]
  inhibition at 0.1 µM: 76%
CSF1R [2]; [4]
  inhibition at 0.1 µM: 50 to 80%

## COc1cc2nccc(Oc3ccc(NC(=O)c4nn(CC(C)O)cc4OCC(F)(F)F)cc3F)c2cc1OC (stereo not shown) [Compound 80]
CSF1R [1]
  IC50: ≥ 1000 nM
CSF1R [2]; [3]
  inhibition at 0.1 µM: 64%
CSF1R [2]; [4]
  inhibition at 0.1 µM: 50 to 80%

## COc1cc2nccc(Oc3ccc(NC(=O)c4nn(CC(C)O)cc4OCC(F)(F)F)cc3)c2cc1OC (stereo not shown) [Compound 89]
CSF1R [1]
  IC50: 500 to 1000 nM
CSF1R [2]; [3]
  inhibition at 0.1 µM: 56%
CSF1R [2]; [4]
  inhibition at 0.1 µM: 50 to 80%

## COc1cc2nccc(Oc3ccc(NC(=O)c4nn(C5CCN(C)C5)cc4OCC(F)(F)F)nc3)c2cc1OC (stereo not shown) [Compound 91]
CSF1R [1]
  IC50: < 500 nM
CSF1R [2]; [3]
  inhibition at 0.1 µM: 99%
CSF1R [2]; [4]
  inhibition at 0.1 µM: ≥ 80%
